The molecules below were run against RORγt (Homo sapiens (Human), UniProt P51449) (assay: Gal4 ligand binding assay (RORγt Gal fusion luciferase reporter assay in HEK293T cells)). Settings: RORγt inverse agonists in RORγt Gal fusion assay.
Sequence of RORγt (P51449 269-508): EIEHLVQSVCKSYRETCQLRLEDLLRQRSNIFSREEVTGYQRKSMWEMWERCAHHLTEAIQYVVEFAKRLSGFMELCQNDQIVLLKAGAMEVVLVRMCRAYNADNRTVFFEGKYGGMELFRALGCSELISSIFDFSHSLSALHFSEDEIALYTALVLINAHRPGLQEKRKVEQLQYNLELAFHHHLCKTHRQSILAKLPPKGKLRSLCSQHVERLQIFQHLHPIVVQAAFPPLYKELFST
Format: cell-based
Experimental: The N-terminal DNA binding domains (DBD) of the native RORγ and RORγt receptors have been substituted with that of the yeast GAL4-DBD and stably transfected in HEK293T cells that also stably express luciferase under the regulation by upstream activation sequence of yeast Gal4. These cells constitutively express high level RORγ activity due to binding of endogenous co-factors. Both agonist and inverse agonist activity can be detected. The assay was performed according to kit manufacturer's instructions as follows. 10 mM compound stocks were diluted serially 1:3 with DMSO and further diluted with provided media to generate 10 titration points from 60 μM to 3 nM. These treatment conditions were added to the plates as 2× media in 100 μL volume. Each plate includes a positive control with 10 titration points as well as 6 negative control wells with vehicle only, with final DMSO concentration of 0.2%. RORγ reporter cells were rapidly thawed and added to the plates in 100 μL volume. The plates were incubated for 24 h in a 37° C. humidified 5% CO2 incubator. Media was removed before the addition of room temperature luciferous detection substrate. After 5 minute incubation, relative light units (RLUs) were quantified using a plate reading luminometer. Data was normalized to […] with only 0.2%0DMSO. Before establishing internal controls, ursolic acid was used as control.
For `CCc1cc(CN2CC3(C2)CN(C(=O)OC(C)(C)C)C3)ccc1-c1ccc(C(O)(C(F)(F)F)C(F)(F)F)cc1` [Example 1, tert-butyl 6-((2-ethyl-4′-(1,1,1,3,3,3-hexafluoro-2-hydroxypropan-2-yl)-[1,1′-biphenyl]-4-yl)methyl)-2,6-diazaspiro[3.3]heptane-2-carboxylate], the IC50 was 50 to 250 nM.
In the case of `CCc1cc(CN2CC3(CCS(=O)(=O)CC3)C2)ccc1-c1ccc(C(O)(C(F)(F)F)C(F)(F)F)cc1` [Example 3, 2-((2-ethyl-4′-(1,1,1,3,3,3-hexafluoro-2-hydroxypropan-2-yl)-[1,1′-biphenyl]-4-yl)methyl)-7-thia-2-azaspiro[3.5]nonane 7,7-dioxide], the IC50 is reported as < 50 nM.
`CCc1cc(CN2CCC3(CC2)CN(S(C)(=O)=O)C3)ccc1-c1ccc(C(O)(C(F)(F)F)C(F)(F)F)cc1` [Example 4, 2-(2′-ethyl-4′-((2-(methylsulfonyl)-2,7-diazaspiro[3.5]nonan-7-yl)methyl)-[1,1′-biphenyl]-4-yl)-1,1,1,3,3,3-hexafluoropropan-2-ol] was tested, and the IC50 was < 50 nM.
For `CCc1cc(CN2CCCC3(C2)CN(S(C)(=O)=O)C3)ccc1-c1ccc(C(O)(C(F)(F)F)C(F)(F)F)cc1` [Example 5, 2-(2′-ethyl-4′-((2-(methylsulfonyl)-2,6-diazaspiro[3.5]nonan-6-yl)methyl)-[1,1′-biphenyl]-4-yl)-1,1,1,3,3,3-hexafluoropropan-2-ol], the IC50 was < 50 nM.
`CCc1cc(CN2CC3(CCN(S(C)(=O)=O)C3)C2)ccc1-c1ccc(C(O)(C(F)(F)F)C(F)(F)F)cc1` [Example 6, 2-(2′-ethyl-4′-((6-(methylsulfonyl)-2,6-diazaspiro[3.4]octan-2-yl)methyl)-[1,1′-biphenyl]-4-yl)-1,1,1,3,3,3-hexafluoropropan-2-ol] gave an IC50 of 50 to 250 nM.
`CC(C)c1c(F)c(CN2CC3(C2)CN(S(C)(=O)=O)C3)cc(F)c1-c1ccc(C(O)(C(F)(F)F)C(F)(F)F)cc1` [Example 7, 2-(3′,6′-difluoro-2′-isopropyl-4′-((6-(methylsulfonyl)-2,6-diazaspiro[3.3]heptan-2-yl)methyl)-[1,1′-biphenyl]-4-yl)-1,1,1,3,3,3-hexafluoropropan-2-ol] was tested, and the IC50 was < 50 nM.
`CC(C)c1c(-c2ccc(C(O)(C(F)(F)F)C(F)(F)F)cc2)cc(F)c(CN2CC3(C2)CN(S(C)(=O)=O)C3)c1F` [Example 8, 2-(3′,5′-difluoro-2′-isopropyl-4′-((6-(methylsulfonyl)-2,6-diazaspiro[3.3]heptan-2-yl)methyl)-[1,1′-biphenyl]-4-yl)-1,1,1,3,3,3-hexafluoropropan-2-ol] was tested, and the IC50 was < 50 nM.
`CCc1cc(CN2CCC(CS(C)(=O)=O)CC2)ccc1-c1ccc(C(O)(C(F)(F)F)C(F)(F)F)cc1` [Example 9, 2-(2′-ethyl-4′-((4-((methylsulfonyl)methyl)piperidin-1-yl)methyl)-[1,1′-biphenyl]-4-yl)-1,1,1,3,3,3-hexafluoropropan-2-ol] gave an IC50 of 50 to 250 nM.
`CCc1cc(CN2CCC(S(C)(=O)=O)CC2)ccc1-c1ccc(C(O)(C(F)(F)F)C(F)(F)F)cc1` [Example 10, 2-(2′-ethyl-4′-((4-(methylsulfonyl)piperidin-1-yl)methyl)-[1,1′-biphenyl]-4-yl)-1,1,1,3,3,3-hexafluoropropan-2-ol] was tested, and the IC50 was < 50 nM.
`Cc1cc(C(O)(C(F)(F)F)C(F)(F)F)ccc1-c1ccc(CN2CCC3(C2)CS(=O)(=O)C3)cc1C(C)C` [Example 11, 6-((4′-(1,1,1,3,3,3-hexafluoro-2-hydroxypropan-2-yl)-2-isopropyl-2′-methyl-[1,1′-biphenyl]-4-yl)methyl)-2-thia-6-azaspiro[3.4]octane 2,2-dioxide] was tested, and the IC50 was < 50 nM.
For `Cc1cc(C(O)(C(F)(F)F)C(F)(F)F)ccc1-c1ccc(CN2CC3(C2)CS(=O)(=O)C3)cc1C(C)C` [Example 12, 6-((4′-(1,1,1,3,3,3-hexafluoro-2-hydroxypropan-2-yl)-2-isopropyl-2′-methyl-[1,1′-biphenyl]-4-yl)methyl)-2-thia-6-azaspiro[3.3]heptane 2,2-dioxide], the IC50 was 50 to 250 nM.
In the case of `CCC(C)c1cc(CN2CC3(C2)CN(S(C)(=O)=O)C3)ccc1-c1ccc(C(O)(C(F)(F)F)C(F)(F)F)cc1` (centres unmarked) [Example 13, 2-(2′-(sec-butyl)-4′-((6-(methylsulfonyl)-2,6-diazaspiro[3.3]heptan-2-yl)methyl)-[1,1′-biphenyl]-4-yl)-1,1,1,3,3,3-hexafluoropropan-2-ol], the IC50 is reported as < 50 nM.
In the case of `CC(C)c1cc(CN2CC3(C2)CN(S(C)(=O)=O)C3)c(F)c(F)c1-c1ccc(C(O)(C(F)(F)F)C(F)(F)F)cc1` [Example 14, 2-(2′,3′-difluoro-6′-isopropyl-4′-((6-(methylsulfonyl)-2,6-diazaspiro[3.3]heptan-2-yl)methyl)-[1,1′-biphenyl]-4-yl)-1,1,1,3,3,3-hexafluoropropan-2-ol], the IC50 is reported as < 50 nM.
`CC(C)c1cc(CN2CC3(C2)CN(S(C)(=O)=O)C3)cc(F)c1-c1ccc(C(O)(C(F)(F)F)C(F)(F)F)cc1` [Example 15, 1,1,1,3,3,3-hexafluoro-2-(2′-fluoro-6′-isopropyl-4′-((6-(methylsulfonyl)-2,6-diazaspiro[3.3]heptan-2-yl)methyl)-[1,1′-biphenyl]-4-yl)propan-2-ol] was tested, and the IC50 was < 50 nM.
`CCc1cc(CN2CCC3(C2)CS(=O)(=O)C3)ccc1-c1ccc(C(O)(C(F)(F)F)C(F)(F)F)cc1C` [Example 16, 6-((2-ethyl-4′-(1,1,1,3,3,3-hexafluoro-2-hydroxypropan-2-yl)-2′-methyl-[1,1′-biphenyl]-4-yl)methyl)-2-thia-6-azaspiro[3.4]octane 2,2-dioxide] was tested, and the IC50 was < 50 nM.
Molecule `CCc1cc(CN2CCC3(C2)CS(=O)(=O)C3)ccc1-c1ccc(C(O)(C(F)(F)F)C(F)(F)F)cc1` [Example 17, 6-((2-ethyl-4′-(1,1,1,3,3,3-hexafluoro-2-hydroxypropan-2-yl)-[1,1′-biphenyl]-4-yl)methyl)-2-thia-6-azaspiro[3.4]octane 2,2-dioxide] has an IC50 of 50 to 250 nM.
In the case of `CCc1cc(CN2CC3(C2)CS(=O)(=O)C3)ccc1-c1ccc(C(O)(C(F)(F)F)C(F)(F)F)cc1C` [Example 18, 6-((2-ethyl-4′-(1,1,1,3,3,3-hexafluoro-2-hydroxypropan-2-yl)-2′-methyl-[1,1′-biphenyl]-4-yl)methyl)-2-thia-6-azaspiro[3.3]heptane 2,2-dioxide], the IC50 is reported as < 50 nM.
In the case of `CCc1cc(CN2CC3(CCCN(S(C)(=O)=O)C3)C2)ccc1-c1ccc(C(O)(C(F)(F)F)C(F)(F)F)cc1` [Example 19, 2-(2′-ethyl-4′-((6-(methylsulfonyl)-2,6-diazaspiro[3.5]nonan-2-yl)methyl)-[1,1′-biphenyl]-4-yl)-1,1,1,3,3,3-hexafluoropropan-2-ol], the IC50 is reported as 50 to 250 nM.
In the case of `CCc1cc(CN2CC3(C2)CN(S(=O)(=O)CC)C3)ccc1-c1ccc(C(O)(C(F)(F)F)C(F)(F)F)cc1` [Example 22, 2-(2′-ethyl-4′-((6-(ethylsulfonyl)-2,6-diazaspiro[3.3]heptan-2-yl)methyl)-[1,1′-biphenyl]-4-yl)-1,1,1,3,3,3-hexafluoropropan-2-ol], the IC50 is reported as 50 to 250 nM.
For `CC(C)(C)c1cc(CN2CC3(C2)CN(S(C)(=O)=O)C3)ccc1-c1ccc(C(O)(C(F)(F)F)C(F)(F)F)cc1` [Example 23, 2-(2′-(tert-butyl)-4′-((6-(methylsulfonyl)-2,6-diazaspiro[3.3]heptan-2-yl)methyl)-[1,1′-biphenyl]-4-yl)-1,1,1,3,3,3-hexafluoropropan-2-ol], the IC50 was < 50 nM.
Work on `CCc1cc(CN2CC3(CCS(=O)(=O)C3)C2)ccc1-c1ccc(C(O)(C(F)(F)F)C(F)(F)F)cc1` [Example 24, 2-((2-ethyl-4′-(1,1,1,3,3,3-hexafluoro-2-hydroxypropan-2-yl)-[1,1′-biphenyl]-4-yl)methyl)-6-thia-2-azaspiro[3.4]octane 6,6-dioxide] yielded an IC50 of 50 to 250 nM.
`CCc1cc(CN2CC3(CC[S+]([O-])C3)C2)ccc1-c1ccc(C(O)(C(F)(F)F)C(F)(F)F)cc1` (centres unmarked) [Example 25, 2-((2-ethyl-4′-(1,1,1,3,3,3-hexafluoro-2-hydroxypropan-2-yl)-[1,1′-biphenyl]-4-yl)methyl)-6-thia-2-azaspiro[3.4]octane 6-oxide] was tested, and the IC50 was > 250 nM.
With `CCc1cc(CN2CC3(C2)CS(=O)(=O)C3)ccc1-c1ccc(C(O)(C(F)(F)F)C(F)(F)F)cc1` [Example 26, 6-((2-ethyl-4′-(1,1,1,3,3,3-hexafluoro-2-hydroxypropan-2-yl)-[1,1′-biphenyl]-4-yl)methyl)-2-thia-6-azaspiro[3.3]heptane 2,2-dioxide] the IC50 was 50 to 250 nM.
Molecule `CCc1cc(CN2CC3(C2)C[S+]([O-])C3)ccc1-c1ccc(C(O)(C(F)(F)F)C(F)(F)F)cc1` [Example 27, 6-((2-ethyl-4′-(1,1,1,3,3,3-hexafluoro-2-hydroxypropan-2-yl)-[1,1′-biphenyl]-4-yl)methyl)-2-thia-6-azaspiro[3.3]heptane 2-oxide] has an IC50 of 50 to 250 nM.
With `CCc1cc(CN2CC3(CSC3)C2)ccc1-c1ccc(C(O)(C(F)(F)F)C(F)(F)F)cc1` [Example 28, 2-(4′-((2-thia-6-azaspiro[3.3]heptan-6-yl)methyl)-2′-ethyl-[1,1′-biphenyl]-4-yl)-1,1,1,3,3,3-hexafluoropropan-2-ol] the IC50 was > 250 nM.
For `CCc1cc(CN2CC(CN(C)S(C)(=O)=O)C2)ccc1-c1ccc(C(O)(C(F)(F)F)C(F)(F)F)cc1` [Example 29, N-((1-((2-ethyl-4′-(1,1,1,3,3,3-hexafluoro-2-hydroxypropan-2-yl)-[1,1′-biphenyl]-4-yl)methyl)azetidin-3-yl)methyl)-N-methylmethanesulfonamide], the IC50 was > 250 nM.

Source: US11242350B2, “Spirocyclic ROR-gamma modulators” (Escalier Biosciences B.V., priority 2018, dated 2022)
